Legend:
[1] = Toxicity, LD50 by the up-and-down method; assay type: in vivo; conditions: mouse, in vivo, iv
Text: (§1) With respect to toxicity of the compounds of the invention, each LD50 (mg/kg) measured by the up-and-down method is also set forth in Table 1.

[2] = test system: rhythmic bladder contraction; assay: Test for inhibition of urinating contraction of bladder (rhythmic bladder contraction, anesthetized rat, saline infusion into the closed bladder); assay type: in vivo; conditions: i.v., urethane-anesthetized male Wistar rat, control (physiological saline) 1.6 min.
Description: (I) Test for Inhibition of Urinating Contraction of Bladder
With respect to inhibition of the urinating contraction of bladder, performance of the compound of the present invention was evaluated by the following method.
A male Wistar rat was anesthetized with urethane (1.5 g/kg, s.c.) and fixed on its back on a board. Into the trachea of the rat, a tracheotomy tube was inserted in order to insure an airway, and then midline incisura was carried out to denude the bladder. Subsequently, a small opening was produced on the top of the bladder and the urine was exhausted, and then a polyethylene cannula (diameter: approx. 1 mm) was inserted into the bladder. The urethra and the ureter were tied up to make the bladder a closed system.
By means of an infusion pump, phsiological saline was poured into the bladder of rat at a rate of 0.05 ml/min. induce the rhythmic bladder contraction. Subsequently, intravesical pressure was measured by a pressure transducer and recorded on a pen-writing recorder. The test compound was dissolved in physiological saline and then administered into the femoral vein through a polyethylene cannula.
Performance for inhibiting the urinary bladder contraction was evaluated by measuring the period (inhibiting period) in which the rhythmic bladder contraction was inhibited. As the medicament, each of the compounds obtained in Examples was used.

Urinary bladder strips = assay: Effect on isolated urinary bladder smooth muscle (contraction elicited by acetylcholine or norepinephrine); parameters: species or system male Japanese white rabbits; conditions: rabbit urinary bladder strips, Krebs solution 37°C; pretreatment five minutes before, concentration 1x10^-5 to 3x10^-5 (unit not given)
Description: (II) Effect on Isolated Urinary Bladder Smooth Muscle
Urinary bladder strips were obtained from male Japanese white rabbits (weight: 2.00-2.80 kg). Each strip was suspended in an organ bath containing Krebs solution. The organ bath was maintained at 37°C and constantly gassed with carbogen. Cumulative concentration-response curves of acetylcholine and norepinephrine were obtained.
The compound to be tested (compound of Example 2 (i.e., 5-benzyl-3-(3-morpholino-1-phenylpropyl)-1,3-oxazolidin-2-one fumarate) was introduced into the Krebs solution five minutes prior to the introduction of acetylcholine or norepinephrine to elicit the contractive action.
Therefore, it has been confirmed that the tested compound depresses the bladder contraction not by acting on the peripheral nerves system but on the central nurves system.

mouse = assay: Toxicity, LD50 by the up-and-down method; assay type: in vivo; conditions: i.v.
Text: as §1

In the case of `O=C(O)/C=C/C(=O)O.O=C1OC(Cc2ccccc2)CN1C(CCN1CCOCC1)c1ccccc1` (single isomer, unassigned) [Example 2, 5-Benzyl-3-(3-morpholino-1-phenylpropyl)-1,3-oxazolidin-2-one fumarate], the LD50 [1] is reported as 76 mg/kg, the “Period (inhibiting period in which the rhythmic bladder contraction was inhibited)” value ([2]; dose 8 mg/kg, fumarate) is reported as 5.4 min and the “action on the contraction caused by acetylcholine” value (Urinary bladder strips) is reported as “did not give any effective action”. For the same molecule, the “action on the contraction caused by norepinepherine” value (Urinary bladder strips) was “did not give any effective action”.

For `O=C(O)/C=C/C(=O)O.O=C1OC(Cc2ccccc2Br)CN1C(CCN1CCOCC1)c1ccccc1` (single isomer, unassigned) [Example 13, 5-(2-Bromophenyl)methyl-3-(3-morpholino-1-phenylpropyl)-1,3-oxazolidin-2-one fumarate], the LD50 [1] was 48 mg/kg and the “Period (inhibiting period in which the rhythmic bladder contraction was inhibited)” value ([2]; dose 5 mg/kg) was 6.5 min.

In the case of `O=C(O)/C=C/C(=O)O.O=C1OC(CCc2ccccc2Br)CN1C(CCN1CCOCC1)c1ccccc1` (single isomer, unassigned) [Example 25, 5-[2-(2-bromophenyl)ethyl]-3-(3-morpholino-1-phenylpropyl)-1,3-oxazolidin-2-one fumarate], the LD50 [1] is reported as 79 mg/kg and the “Period (inhibiting period in which the rhythmic bladder contraction was inhibited)” value ([2]; dose 8 mg/kg) is reported as 7.5 min.

For `O=C(O)/C=C/C(=O)O.O=C1OC(CCc2ccccc2Cl)CN1C(CCN1CCOCC1)c1ccccc1` (single isomer, unassigned) [Example 27, 5-[2-(2-Chlorophenyl)ethyl]-3-(3-morpholino-1-phenylpropyl)-1,3-oxazolidin-2-one fumarate], the LD50 [1] was 75 mg/kg and the “Period (inhibiting period in which the rhythmic bladder contraction was inhibited)” value ([2]; dose 8 mg/kg) was 8.0 min.

For `CS(=O)(=O)O.O=C1OC(Cc2cccc3ccccc23)CN1C(CCN1CCOCC1)c1ccccc1` (single isomer, unassigned) [Example 46, 5-(1-Naphthyl)methyl-3-(3-morpholino-1-phenylpropyl)-1,3-oxazolidin-2-one mesylate], the LD50 [1] was greater than 20 mg/kg and the “Period (inhibiting period in which the rhythmic bladder contraction was inhibited)” value ([2]; dose 5 mg/kg) was 6.0 min.

In the case of `O=C(O)/C=C/C(=O)O.O=C1OC(CCc2ccccc2)CN1C(CCN1CCOCC1)c1ccccc1` (single isomer, unassigned) [Example 50, 3-(3-Morpholino-1-phenylpropyl)-5-(2-phenylethyl)-1,3-oxazolidin-2-one fumarate], the LD50 [1] is reported as 45 mg/kg and the “Period (inhibiting period in which the rhythmic bladder contraction was inhibited)” value ([2]; dose 5 mg/kg) is reported as 7.5 min.

In the case of `O=C(O)/C=C/C(=O)O.O=C1OC(Cc2cccs2)CN1C(CCN1CCOCC1)c1ccccc1` (single isomer, unassigned) [Example 55, 3-(3-Morpholino-1-phenylpropyl)-5-(2-thenyl)-1,3-oxazolidin-2-one fumarate], the LD50 [1] is reported as 84 mg/kg and the “Period (inhibiting period in which the rhythmic bladder contraction was inhibited)” value ([2]; dose 8 mg/kg) is reported as 4.6 min.

With `O=C(O)/C=C/C(=O)O.O=C1OC(Cc2cccs2)CN1C(CCN1CCOCC1)c1ccccc1` (single isomer, unassigned) [Example 56, 3-(3-Morpholino-1-phenylpropyl)-5-(2-thenyl)-1,3-oxazolidin-2-one fumarate] the LD50/mouse (mouse; fumarate) was 111 mg/kg and the “Period (inhibiting period in which the rhythmic bladder contraction was inhibited)” value ([2]; dose 11 mg/kg) was 4.7 min.

With `O=C1OC(Cc2ccccc2)CN1C(CCN1CCOCC1)c1cccs1` (single isomer, unassigned) [Example 61, 5-Benzyl-3-[3-morpholino-1-(2-thienyl)propyl]-1,3-oxazolidin-2-one] the LD50 [1] was 59 mg/kg and the “Period (inhibiting period in which the rhythmic bladder contraction was inhibited)” value ([2]; dose 6 mg/kg) was 6.5 min.

For `O=C1OC(Cc2ccccc2)CN1C(CCN1CCOCC1)c1cccs1` (single isomer, unassigned) [Example 62, 5-Benzyl-3-[3-morpholino-1-(2-thienyl)propyl]-1,3-oxazolidin-2-one], the LD50/mouse (mouse) was 63 mg/kg and the “Period (inhibiting period in which the rhythmic bladder contraction was inhibited)” value ([2]; dose 6 mg/kg) was 7.2 min.

For `CC(C)CC1COC(=O)N1C(CCN1CCOCC1)c1ccccc1.O=C(O)/C=C/C(=O)O` (single isomer, unassigned) [Example 67, 4-Isobutyl-3-(3-morpholino-1-phenylpropyl)-1,3-oxazolidin-2-one fumarate], the LD50 [1] was 137 mg/kg and the “Period (inhibiting period in which the rhythmic bladder contraction was inhibited)” value ([2]; dose 14 mg/kg) was 3.5 min.

For `O=C(O)/C=C/C(=O)O.O=C1OCC(Cc2ccccc2)N1C(CCN1CCOCC1)c1ccccc1` (single isomer, unassigned) [Example 69, 4-Benzyl-3-(3-morpholino-1-phenylpropyl)-1,3-oxazolidin-2-one fumarate], the LD50 [1] was 76 mg/kg and the “Period (inhibiting period in which the rhythmic bladder contraction was inhibited)” value ([2]; dose 8 mg/kg) was 6.6 min.

With `O=C(O)/C=C/C(=O)O.O=C1COC(Cc2ccccc2Br)CN1C(CCN1CCOCC1)c1ccccc1` (single isomer, unassigned) [Example 70, 2-(2-Bromobenzyl)-4-(3-morpholino-1-phenylpropyl)-5-morpholinone fumarate] the LD50 [1] was greater than 60 mg/kg and the “Period (inhibiting period in which the rhythmic bladder contraction was inhibited)” value ([2]; dose 6 mg/kg) was 1.5 min.

In the case of `O=C(O)/C=C/C(=O)O.O=C1OC(Cc2ccccc2)CN1C(CCN1CCOCC1)c1ccccc1` (single isomer, unassigned; (+)) [Example 4, (+)-5-Benzyl-3-(3-morpholino-1-phenylpropyl)-1,3-oxazolidin-2-one fumarate], the LD50/mouse (mouse; fumarate) is reported as 77 mg/kg and the “Period (inhibiting period in which the rhythmic bladder contraction was inhibited)” value ([2]; dose 8 mg/kg, fumarate) is reported as 3.8 min.

In the case of `O=C(O)/C=C/C(=O)O.O=C1OC(Cc2ccccc2)CN1C(CCN1CCOCC1)c1ccccc1` (single isomer, unassigned; (-)) [Example 3, (-)-5-Benzyl-3-(3-morpholino-1-phenylpropyl)-1,3-oxazolidin-2-one fumarate], the LD50/mouse (mouse; fumarate) is reported as 49 mg/kg and the “Period (inhibiting period in which the rhythmic bladder contraction was inhibited)” value ([2]; dose 8 mg/kg, fumarate) is reported as 6.0 min.
